Laboratory results as given in US20240299597A1, “3-Iodopropyl-1,2,3-Triazol-1-yl, 3-Bromopropyl-1,2,3-Triazol-1-yl, and Derivatives for Uses in Labeling” (Emory University, priority 2021, published 2024).

Test: Storage stability / shelf life of F-18 labeling precursors
Assay type: physicochemical
Conditions: for stability to storage compared to the tosylate and 4-bromo-tosylate derivatives: comparison in the FIG. 1C legend; for stability on storage: stored below 0 C

CC(=O)OCC1OC(OC2C(COC(C)=O)OC(OC3C(COC(C)=O)OC(OCCCn4cc(CCCBr)nn4)C(OC(C)=O)C3OC(C)=O)C(OC(C)=O)C2OC(C)=O)C(OC(C)=O)C(OC(C)=O)C1OC(C)=O (stereo not shown) [3-bromopropyl-precursor, 2-(acetoxymethyl)-6-((4,5-diacetoxy-2-(acetoxymethyl)-6-((4,5-diacetoxy-2-(acetoxymethyl)-6-(3-(4-(3-bromopropyl)-1H-1,2,3-triazol-1-yl)propoxy)tetrahydro-2H-pyran-3-yl)oxy)tetrahydro-2H-pyran-3-yl)oxy)tetrahydro-2H-pyran-3,4,5-triyl triacetate]
stability to storage compared to the tosylate and 4-bromo-tosylate derivatives: more statable to storage
stability on storage: stable

CC(=O)OCC1OC(OC2C(COC(C)=O)OC(OC3C(COC(C)=O)OC(OCCCn4cc(CCCI)nn4)C(OC(C)=O)C3OC(C)=O)C(OC(C)=O)C2OC(C)=O)C(OC(C)=O)C(OC(C)=O)C1OC(C)=O (stereo not shown) [3-iodopropyl-precursor, 2-(acetoxymethyl)-6-((4,5-diacetoxy-2-(acetoxymethyl)-6-((4,5-diacetoxy-2-(acetoxymethyl)-6-(3-(4-(3-iodopropyl)-1H-1,2,3-triazol-1-yl)propoxy)tetrahydro-2H-pyran-3-yl)oxy)tetrahydro-2H-pyran-3-yl)oxy)tetrahydro-2H-pyran-3,4,5-triyl triacetate]
stability to storage compared to the tosylate and 4-bromo-tosylate derivatives: more statable to storage
stability on storage: stable
